pIC50: −log10 of the molar value.
The compounds below were run against T1, human Cot/Tpl2 kinase (Homo sapiens, UniProt P41279) (assay: Tpl2/Cot kinase assay: GST-MEK1 phosphorylation detected by ELISA (DELFIA Eu)). Conditions: 0.4 nM Tpl2, 35 nM GST-MEK1, 50 uM ATP, 1 h at 30° C.
T1 construct: human Cot/Tpl2 kinase construct encoding residues 30-398; 6His (N); made in house; host or cells: Sf9 insect cells, baculovirus system (BD Biosciences)
Assay type: biochemical
How it was run: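 Substrate phosphorylation (GST-MEK1 Ser217/221) quantified by DELFIA europium ELISA, yielding IC50 values. Reaction: 1 h at 30° C, pH 7.2 MOPS buffer, 50 uM ATP, 35 nM GST-MEK1, 0.4 nM monomeric His-Tpl2 purified from Sf9 cells, compounds at 1% final DMSO; stopped with EDTA.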

T1 sequence (P41279 30-398): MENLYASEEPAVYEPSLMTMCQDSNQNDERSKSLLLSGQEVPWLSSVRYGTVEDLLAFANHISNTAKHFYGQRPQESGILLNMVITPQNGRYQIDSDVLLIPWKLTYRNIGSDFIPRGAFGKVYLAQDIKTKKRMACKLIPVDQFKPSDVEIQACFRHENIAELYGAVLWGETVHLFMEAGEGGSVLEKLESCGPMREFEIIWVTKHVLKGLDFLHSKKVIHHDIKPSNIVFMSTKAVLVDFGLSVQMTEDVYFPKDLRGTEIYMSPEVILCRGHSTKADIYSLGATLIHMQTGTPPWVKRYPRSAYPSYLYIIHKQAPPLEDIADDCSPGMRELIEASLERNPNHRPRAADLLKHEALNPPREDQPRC

pIC50 | SMILES
6.05 | CCCCc1ncc(CNc2cc(Br)c3ncc(C#N)c(Nc4ccc(F)c(Cl)c4)c3c2)[nH]1 [Example 107, 8-bromo-6-((2-butyl-1H-imidazol-5-yl)methylamino)-4-(3-chloro-4-fluorophenylamino)quinoline-3-carbonitrile]
6.26 | CNC(=O)CNc1ccc2ncc(C#N)c(Nc3ccc(F)c(Cl)c3)c2c1 [Example 108, 2-(4-(3-chloro-4-fluorophenylamino)-3-cyanoquinolin-6-ylamino)-N-methylacetamide]
5.66 | C/C=C/c1cc(NCc2cccnc2)cc2c(Nc3ccc(F)c(Cl)c3)c(C#N)cnc12 [Example 109, (E)-4-(3-chloro-4-fluorophenylamino)-8-(prop-1-enyl)-6-(pyridin-3-ylmethylamino)quinoline-3-carbonitrile]
7.06 | COC(=O)c1nc[nH]c1CNc1cc(Br)c2ncc(C#N)c(Nc3ccc(F)c(Cl)c3)c2c1 [Example 110, Methyl 5-((8-bromo-4-(3-chloro-4-fluorophenylamino)-3-cyanoquinolin-6-ylamino)methyl)-1H-imidazole-4-carboxylate]
7.48 | N#Cc1cnc2c(Br)cc(NCc3[nH]cnc3-c3ccccc3)cc2c1Nc1ccc(F)c(Cl)c1 [Example 111, 8-bromo-4-(3-chloro-4-fluorophenylamino)-6-((4-phenyl-1H-imidazol-5-yl)methylamino)quinoline-3-carbonitrile]
8.46 | CCc1nc[nH]c1CNc1cc(Br)c2ncc(C#N)c(Nc3ccc(F)c(Cl)c3)c2c1 [Example 112, 8-bromo-4-(3-chloro-4-fluorophenylamino)-6-((4-ethyl-1H-imidazol-5-yl)methylamino)quinoline-3-carbonitrile]
8.00 | Cc1c(CNc2cc(Br)c3ncc(C#N)c(Nc4ccc(F)c(Cl)c4)c3c2)ncn1C [Example 113, 8-bromo-4-(3-chloro-4-fluorophenylamino)-6-((1,5-dimethyl-1H-imidazol-4-yl)methylamino)quinoline-3-carbonitrile]
6.51 | N#Cc1cnc2c(Br)cc(NCc3[nH]cnc3C(F)(F)F)cc2c1Nc1ccc(F)c(Cl)c1 [Example 114, 8-bromo-4-(3-chloro-4-fluorophenylamino)-6-((4-(trifluoromethyl)-1H-imidazol-5-yl)methylamino)quinoline-3-carbonitrile]
6.89 | CC(C)c1nc[nH]c1CNc1cc(Br)c2ncc(C#N)c(Nc3ccc(F)c(Cl)c3)c2c1 [Example 115, 8-bromo-4-(3-chloro-4-fluorophenylamino)-6-((4-isopropyl-1H-imidazol-5-yl)methylamino)quinoline-3-carbonitrile]
< 4.40 | N#Cc1cnc2c(Br)cc(NC(=O)Cc3cnc[nH]3)cc2c1Nc1ccc(F)c(Cl)c1 [Example 117, N-(8-bromo-4-(3-chloro-4-fluorophenylamino)-3-cyanoquinolin-6-yl)-2-(1H-imidazol-5-yl)acetamide]
6.96 | N#Cc1cnc2c(Br)cc(NCc3nn[nH]c3-c3ccccc3F)cc2c1Nc1ccc(F)c(Cl)c1 [Example 118, 8-bromo-4-[(3-chloro-4-fluorophenyl)amino]-6-({[5-(2-fluorophenyl)-1H-1,2,3-triazol-4-yl]methyl}amino)quinoline-3-carbonitrile]
6.46 | N#Cc1cnc2c(Br)cc(NCc3nn[nH]c3-c3cccc(F)c3)cc2c1Nc1ccc(F)c(Cl)c1 [Example 119, 8-bromo-4-[(3-chloro-4-fluorophenyl)amino]-6-({[5-(3-fluorophenyl)-1H-1,2,3-triazol-4-yl]methyl}amino)quinoline-3-carbonitrile]
7.62 | N#Cc1cnc2ccc(NCc3ccc(S(=O)(=O)N4CCOCC4)cc3)cc2c1Nc1ccc(F)c(Cl)c1 [Example 120, 6-(4-(morpholinosulfonyl)benzylamino)-4-(3-chloro-4-fluorophenylamino)quinoline-3-carbonitrile]
6.94 | N#Cc1cnc2ccc(NCc3ccc(S(N)(=O)=O)cc3)cc2c1Nc1ccc(F)c(Cl)c1 [Example 121, 4-((4-(3-chloro-4-fluorophenylamino)-3-cyanoquinolin-6-ylamino)methyl)benzenesulfonamide]
